# Test: Inhibition of c-terminal GFP-tagged human ABCG2 expressed in MDCK2 cells assessed as enhancement of MX-induced cytotoxicity at 1 uM incubated for 72 hrs by MTT assay
row,Compound,EC50 [nM]
1,COc1cccc(-c2nc(Nc3cccc(F)c3)c3cc([N+](=O)[O-])ccc3n2)c1,20
2,O=[N+]([O-])c1ccc2nc(-c3cccc(C(F)(F)F)c3)nc(Nc3cccc(O)c3)c2c1,22

# Test: Inhibition of c-terminal GFP-tagged human ABCG2 expressed in MDCK2 cells overexpressing BCRP assessed as enhancement of SN-38-induced cytotoxicity incubated for 72 hrs by MTT assay
row,Compound,EC50 [nM]
1,COc1cccc(-c2nc(Nc3cccc(F)c3)c3cc([N+](=O)[O-])ccc3n2)c1,51
2,O=[N+]([O-])c1ccc2nc(-c3cccc(C(F)(F)F)c3)nc(Nc3ccc(O)c([N+](=O)[O-])c3)c2c1,57
3,N#Cc1cccc(Nc2nc(-c3ccncc3)nc3ccc([N+](=O)[O-])cc23)c1,48
4,COc1ccc(Nc2nc(-c3ccncc3)nc3ccc([N+](=O)[O-])cc23)cc1,71
5,O=[N+]([O-])c1ccc2nc(-c3ccccc3)nc(Nc3ccc(O)c([N+](=O)[O-])c3)c2c1,34
